Where two headings read alike, the source gives them in different places.
How the values were obtained:
dog liver microsomes = assay type: in vitro ADME; settings: for Km / Vmax: formation of (+)-M5 from substrate
CYP2D15 = biological target: T1, CYP2D15 (Canis lupus familiaris, UniProt Q29473); assay type: in vitro ADME, canine; settings: recombinant CYP2D15; (+)-M1 10 μM, (+)-M2 0.5 μM
T1 sequence (Q29473 1-500): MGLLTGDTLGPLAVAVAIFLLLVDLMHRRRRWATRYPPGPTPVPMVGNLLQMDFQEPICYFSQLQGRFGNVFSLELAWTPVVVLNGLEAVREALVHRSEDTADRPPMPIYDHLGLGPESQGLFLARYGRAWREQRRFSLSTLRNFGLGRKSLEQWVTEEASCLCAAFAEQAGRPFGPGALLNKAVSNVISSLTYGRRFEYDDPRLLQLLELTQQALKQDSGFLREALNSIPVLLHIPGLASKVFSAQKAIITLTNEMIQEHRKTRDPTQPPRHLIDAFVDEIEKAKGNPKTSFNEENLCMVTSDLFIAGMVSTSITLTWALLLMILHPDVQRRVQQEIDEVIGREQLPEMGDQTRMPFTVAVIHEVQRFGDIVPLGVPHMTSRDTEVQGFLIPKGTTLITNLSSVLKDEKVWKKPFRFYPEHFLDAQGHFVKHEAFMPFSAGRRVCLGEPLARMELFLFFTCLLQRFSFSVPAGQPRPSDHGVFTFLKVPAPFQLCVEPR

human liver microsomes = assay type: in vitro ADME; settings: pooled human liver microsomes (n = 48); (+)-M1 at 10 μM, (+)-M2 at 0.5 μM
CYP3A12 = CYP3A12 (Canis lupus familiaris, UniProt P24463); assay type: in vitro ADME, canine; settings: recombinant CYP3A12; (+)-M1 10 μM, (+)-M2 0.5 μM
CYP1A2 = biological target: T2, CYP1A2 (Canis lupus familiaris, UniProt P56592); assay type: in vitro ADME, canine; settings: recombinant CYP1A2; (+)-M1 10 μM, (+)-M2 0.5 μM
T2 sequence (P56592 1-512): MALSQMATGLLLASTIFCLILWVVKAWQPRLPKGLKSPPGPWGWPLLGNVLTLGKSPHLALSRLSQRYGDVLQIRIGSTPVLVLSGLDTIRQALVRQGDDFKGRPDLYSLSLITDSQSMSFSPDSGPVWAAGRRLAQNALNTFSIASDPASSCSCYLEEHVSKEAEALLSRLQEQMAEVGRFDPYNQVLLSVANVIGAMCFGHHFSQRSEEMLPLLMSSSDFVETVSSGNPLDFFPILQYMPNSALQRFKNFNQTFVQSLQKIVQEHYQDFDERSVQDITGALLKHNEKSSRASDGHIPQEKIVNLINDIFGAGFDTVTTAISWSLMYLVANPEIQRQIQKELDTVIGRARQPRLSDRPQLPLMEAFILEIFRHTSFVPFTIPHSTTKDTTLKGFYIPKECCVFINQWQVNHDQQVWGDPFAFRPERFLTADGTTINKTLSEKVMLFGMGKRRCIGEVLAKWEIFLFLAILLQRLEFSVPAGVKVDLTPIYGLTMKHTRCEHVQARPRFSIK

CYP2C21 = biological target: T3, CYP2C21 (Canis lupus familiaris, UniProt P56594); assay type: in vitro ADME, canine; settings: recombinant CYP2C21; (+)-M1 10 μM, (+)-M2 0.5 μM
T3 sequence (P56594 1-487): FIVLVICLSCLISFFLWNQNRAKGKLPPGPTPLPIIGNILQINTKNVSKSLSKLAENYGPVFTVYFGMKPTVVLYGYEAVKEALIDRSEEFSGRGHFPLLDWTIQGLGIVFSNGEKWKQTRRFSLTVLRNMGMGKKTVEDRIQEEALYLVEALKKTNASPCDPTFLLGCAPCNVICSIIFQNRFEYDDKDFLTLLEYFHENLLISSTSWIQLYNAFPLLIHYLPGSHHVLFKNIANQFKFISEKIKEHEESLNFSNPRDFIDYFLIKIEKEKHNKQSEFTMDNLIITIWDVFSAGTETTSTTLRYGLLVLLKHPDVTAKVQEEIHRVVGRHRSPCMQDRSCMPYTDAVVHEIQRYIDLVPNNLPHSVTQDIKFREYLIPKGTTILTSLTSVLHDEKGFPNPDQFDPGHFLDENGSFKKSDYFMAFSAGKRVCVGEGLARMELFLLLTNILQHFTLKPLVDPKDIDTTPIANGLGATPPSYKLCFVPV

CYP3A26 = assay type: in vitro ADME, canine; settings: recombinant CYP3A26; (+)-M1 10 μM, (+)-M2 0.5 μM
CYP2B11 = biological target: T4, CYP2B11 (Canis lupus familiaris, UniProt P24460); assay type: in vitro ADME, canine; settings: recombinant CYP2B11; (+)-M1 10 μM, (+)-M2 0.5 μM
T4 sequence (P24460 1-494): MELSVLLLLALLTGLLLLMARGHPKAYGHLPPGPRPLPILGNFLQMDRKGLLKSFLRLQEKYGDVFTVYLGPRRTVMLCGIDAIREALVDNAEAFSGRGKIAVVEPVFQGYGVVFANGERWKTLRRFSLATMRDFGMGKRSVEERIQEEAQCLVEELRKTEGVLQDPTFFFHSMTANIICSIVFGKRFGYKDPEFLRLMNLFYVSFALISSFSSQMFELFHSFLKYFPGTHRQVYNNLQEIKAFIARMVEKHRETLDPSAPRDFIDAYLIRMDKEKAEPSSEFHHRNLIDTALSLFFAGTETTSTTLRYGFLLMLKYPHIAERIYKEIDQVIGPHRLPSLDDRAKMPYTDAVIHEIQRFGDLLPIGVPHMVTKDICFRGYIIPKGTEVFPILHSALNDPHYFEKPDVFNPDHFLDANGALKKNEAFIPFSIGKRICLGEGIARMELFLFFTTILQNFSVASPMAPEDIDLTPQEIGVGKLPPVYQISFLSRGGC

Chain of CYP3A12 (P24463 whole entry): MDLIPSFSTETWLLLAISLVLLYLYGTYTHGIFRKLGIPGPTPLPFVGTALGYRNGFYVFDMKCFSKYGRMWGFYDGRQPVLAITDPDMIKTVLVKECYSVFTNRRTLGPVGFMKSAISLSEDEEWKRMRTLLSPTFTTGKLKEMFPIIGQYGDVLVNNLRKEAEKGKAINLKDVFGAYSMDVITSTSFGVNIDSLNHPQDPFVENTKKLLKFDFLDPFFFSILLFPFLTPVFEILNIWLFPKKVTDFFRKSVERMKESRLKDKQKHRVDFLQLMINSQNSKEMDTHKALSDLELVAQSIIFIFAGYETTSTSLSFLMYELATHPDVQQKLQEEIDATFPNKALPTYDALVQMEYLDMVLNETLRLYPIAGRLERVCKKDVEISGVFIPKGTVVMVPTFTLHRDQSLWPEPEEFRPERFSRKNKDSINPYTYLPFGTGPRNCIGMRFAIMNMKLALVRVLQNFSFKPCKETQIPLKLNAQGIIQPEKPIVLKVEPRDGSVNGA

SMILES: CN(C)CC1CCCCC1(O)c1cccc(O)c1.Cl (single isomer, unassigned; (+)) [(+)-M1, (+)-O-desmethyltramadol hydrochloride]
- Km (dog liver microsomes; Dog 10 liver microsomes): 158 µM
- Vmax (dog liver microsomes; Dog 10 liver microsomes): 63 pmol/min/mg protein
- Km (dog liver microsomes; Dog 31 liver microsomes): 64 µM
- Vmax (dog liver microsomes; Dog 31 liver microsomes): 67 pmol/min/mg protein
- Km (dog liver microsomes; Dog 46 liver microsomes): 108 µM
- Vmax (dog liver microsomes; Dog 46 liver microsomes): 94 pmol/min/mg protein
- Km (dog liver microsomes; pDLM (liver microsomes pooled from 59 dogs)): 112 µM
- Vmax (dog liver microsomes; pDLM (pooled from 59 dogs)): 61 pmol/min/mg protein
- (+)-M5 formation rate (in words) (dog liver microsomes; pooled dog liver microsomes (n = 59), (+)-M1 at 10 μM, (+)-M2 at 0.5 μM): highest activities
- formation rate of (+)-M5 (in words) (CYP2D15): only very low activities
- (+)-M5 formation rate (in words) (human liver microsomes): low activities
- formation rate of (+)-M5 (in words) (CYP3A12): only very low activities
- formation rate of (+)-M5 (in words) (CYP1A2): only very low activities
- formation rate of (+)-M5 (in words) (CYP2C21): highest
- formation rate of (+)-M5 (in words) (CYP3A26): only very low activities
- formation rate of (+)-M5 (in words) (CYP2B11): somewhat lower activities

— article PMC6214715 (Journal of veterinary pharmacology and therapeutics, 2018)
